Data published in patent publication US11884649B2, “IRE1α inhibitors and uses thereof” (The Regents of the University of California, priority 2020, dated 2024).

What was measured:
Assay type in all cases: biochemical
[1] = target: T1, IRE1α* (Homo sapiens, UniProt O75460); assay: In vitro kinase activity assay (IRE1α kinase inhibition)
T1 construct: human IRE1α (residues 547-977, IRE1α*) was expressed in SF9 insect cells; His6 (N); made in house; host or cells: Sf9 insect cells (Bac-to-Bac baculovirus)
Description: A construct containing the cytosolic kinase and RNase domains of human IRE1α (residues 547-977, IRE1α*) was expressed in SF9 insect cells by using the Bac-to-Bac baculovirus expression system (Invitrogen) with a His6 tag at the N-terminus and purified with a nickel-nitriloacetic acid (Qiagen) column. To generate dP-IRE1α*, we removed basal phosphorylation sites by incubating IRE1α* with λ-PPase (New England Biolabs) at a molar ratio of 5:1 (IRE1α*: λ-PPase) in 50 mM HEPES pH 7.5, 100 mM NaCl, 1 mM MnCl2, 2 mM dithiothreitol (DTT) and 0.01% Brij 35 detergent (v/v) overnight at 4° C. Dephosphorylation was verified through western blotting using a universal phospho-protein detection agent (biotin-pIMAGO (Tymora Analytical Operations, Cat. No.: FL800) and imaged using a streptavidin-linked fluorophore.
In Vitro Kinase Activity Assay
Inhibitors (initial concentration of 10 or 60 μM, three-fold serial dilutions) were incubated with IRE1α* in cleavage buffer (20 mM HEPES, 0.05% Triton X-100 (v/v), 50 mM KCl, 1 mM MgCl2, 1 mM DTT, pH 7.5) for 30 min, followed by incubation with 10 μCi [γ^32P] ATP (3,000 Ci mmol^−1, PerkinElmer) at 23° C. for 3 hours. Samples were then spotted onto glass fiber paper (Easytab-C Glass Fiber Filter Paper, Perkin Elmer) and washed in twice with 0.5% phosphoric acid and autoradiographed using a GE Typhoon FLA 9000 Imager. Blots were quantitated using ImageQuant software. The percent inhibition was quantified by setting the background (no kinase well) as 0 and standardizing to IRE1α* without compound treatment (IRE1α*+DMSO). Dose-response curves were fit using “one-site fit log IC50” parameter using GraphPad Prism analysis software.
Compound Characterization (IC50 IRE1α Kinase Inhibition)

[2] = target: T1, IRE1α*; assay: In vitro RNase activity assay, XBP1-mini substrate cleavage, inhibitor titrations; conditions: relative to apo IRE1α*
Description: In Vitro RNase Activity Assay Inhibitor Titrations
50 nM IRE1α* was incubated with inhibitor (initial concentration of 10 or 60 μM, three-fold serial dilutions) or DMSO for 30 min in assay buffer (20 mM Tris, 50 mM NaCl, 1 mM MgCl2, 2 mM DTT, 0.05% Triton X-100 (v/v), pH 7.5). Assays were initiated by adding 10 μL of XBP1-mini substrate (5′-Alex647-CAUGUCCGCAGCGCAUG-IowaBlack-FQ-3′ (SEQ ID NO: 1); IDT) to the wells at a final concentration of 200 nM and a final well volume of 30 μL. Fluorescence was detected on a Perkin Elmer Envision Microplate Reader at excitation and emission wavelengths of 650 nm and 665 nm. Dose-response curves were fit using “one-site fit log IC50” parameter using GraphPad Prism analysis software.

[3] = target: T1, IRE1α*; assay: In vitro Kdimer assay (dimerization affinity from RNase activity); conditions: 50 μM inhibitor
From the text: In order to better understand how to achieve an optimal intermediate RNase activation state through engagement of IRE1α's kinase domain, we first established a quantitative in vitro framework for characterizing how ATP-binding site occupancy influences RNase activity. […] This dimeric state-commonly referred to as the “back-to-back” dimer—is characterized by an extensive interface between the kinase and RNase domains of each IRE1α protomer; this dimeric state can be promoted through mass action as IRE1α concentration is raised. […] Furthermore, ligands that occupy the ATP-binding site of the kinase domain can also stimulate IRE1α's RNase activity by promoting dimer formation. We measured the ability of a purified, recombinant kinase/RNase domain construct of IRE1α—called IRE1α*—to cleave a FRET-quenched XBP1 RNA mini-substrate as a function of IRE1α* concentration, in order to provide a quantitative metric of IRE1α's dimer affinity (Kdimer) (FIG. 1B).
IRE1α* or dPIRE1α* was titrated from either 2 μM or 4 μM in two-fold serial dilutions in assay buffer (20 mM Tris, 50 mM sodium chloride, 1 mM MgCl2, 2 mM DTT, 0.05% Triton X-100 (v/v), pH 7.5) and incubated with 50 μM inhibitor for 30 minutes at room temperature. Assays were initiated by adding 10 μL of XBP1-mini substrate (5′-Alex647-CAUGUCCGCAGCGCAUG-IowaBlack-FQ-3′ (SEQ ID NO:1); IDT) to the wells at a final concentration of 6 μM and a final well volume of 30 μL. Fluorescence was detected on a Perkin Elmer Envision Microplate Reader at excitation and emission wavelengths of 650 nm and 665 nm. Reaction process was monitored real time in 10-second intervals for at least 30 minutes. Initial rates of XBP1-cleavage were determined for each respective IRE1α* of dpIRE1α* concentration. Specific activity was then determined by dividing rate (RFU/s) by the respective IRE1α* of dpIRE1α* used (RFU/s*[IRE1α]). Kdimer values were determined by fitting these values using the non-linear regression ‘one-site total’ binding parameter in GraphPad Prism analysis software.

[4] = target: T2, dpIRE1α* (Homo sapiens, UniProt O75460); assay: In vitro Kdimer assay with dephosphorylated construct; conditions: 50 μM inhibitor
T2 construct: human IRE1α (residues 547-977, IRE1α*) was expressed in SF9 insect cells; His6 (N); made in house; host or cells: Sf9 insect cells, then λ-PPase treatment
From the text: In order to better understand how to achieve an optimal intermediate RNase activation state through engagement of IRE1α's kinase domain, we first established a quantitative in vitro framework for characterizing how ATP-binding site occupancy influences RNase activity. […] This dimeric state-commonly referred to as the “back-to-back” dimer—is characterized by an extensive interface between the kinase and RNase domains of each IRE1α protomer; this dimeric state can be promoted through mass action as IRE1α concentration is raised. […] Furthermore, ligands that occupy the ATP-binding site of the kinase domain can also stimulate IRE1α's RNase activity by promoting dimer formation. We measured the ability of a purified, recombinant kinase/RNase domain construct of IRE1α—called IRE1α*—to cleave a FRET-quenched XBP1 RNA mini-substrate as a function of IRE1α* concentration, in order to provide a quantitative metric of IRE1α's dimer affinity (Kdimer) (FIG. 1B). […]
IRE1α* or dPIRE1α* was titrated from either 2 μM or 4 μM in two-fold serial dilutions in assay buffer (20 mM Tris, 50 mM sodium chloride, 1 mM MgCl2, 2 mM DTT, 0.05% Triton X-100 (v/v), pH 7.5) and incubated with 50 μM inhibitor for 30 minutes at room temperature. […] Fluorescence was detected on a Perkin Elmer Envision Microplate Reader at excitation and emission wavelengths of 650 nm and 665 nm. […]

T1 sequence (O75460 547-977): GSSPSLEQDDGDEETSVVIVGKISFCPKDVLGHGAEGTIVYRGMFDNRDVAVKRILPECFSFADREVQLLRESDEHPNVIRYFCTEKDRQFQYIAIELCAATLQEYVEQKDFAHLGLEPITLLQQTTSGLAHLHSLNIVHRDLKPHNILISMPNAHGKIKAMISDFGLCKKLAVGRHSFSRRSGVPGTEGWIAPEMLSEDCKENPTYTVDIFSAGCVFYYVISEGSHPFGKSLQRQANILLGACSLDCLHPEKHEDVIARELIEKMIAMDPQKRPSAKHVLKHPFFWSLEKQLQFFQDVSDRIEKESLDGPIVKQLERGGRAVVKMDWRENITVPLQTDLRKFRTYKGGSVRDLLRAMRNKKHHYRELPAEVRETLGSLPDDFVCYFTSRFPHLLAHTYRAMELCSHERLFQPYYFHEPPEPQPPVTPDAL
T2 sequence (O75460 547-977): as above

kinase activity of IRE1α* / ATP-binding site occupancy (in words) [1]	RNase activity of IRE1α* (in words) [2]	Compound	dimerization affinity of IRE1α* / formation of RNase active dimers [3]	formation of the RNase active dimer of dpIRE1α* [4]
dose-dependently inhibited	dose-dependently inhibited	N[C@H]1CC[C@H](Nc2nccc(-c3cccnc3Oc3ccc(NS(=O)(=O)CCC(F)(F)F)c(F)c3)n2)CC1 [compound 3, N-(4-(3-(2-((1r,4r)-4-aminocyclohexylamino)pyrimidin-4-yl)pyridin-2-yloxy)-2-fluorophenyl)-3,3,3-trifluoropropane-1-sulfonamide]	completely suppressed the formation of RNase active dimers	
		NC(=O)Nc1cc(-c2cccc(F)c2)sc1C(=O)N[C@H]1CCCNC1 [AZD7762]	promotes the formation of the RNase active dimer of IRE1α*	promotes the formation of the RNase active dimer of dpIRE1α*
